“Also recorded” adds a separate entry of the source. Read-outs that look alike come from different tables or passages of the source.
Columns and labels:
[1] = target: T1, TDP1 (Homo sapiens, UniProt Q9NUW8); settings: Figure 2, known inhibitor; cited from earlier work
T1 construct: inferred from the pET 16B vector and purification on Ni-chelating resin; made in house

[2] = target: T1, TDP1; test: TDP1 assay: recombinant TDP1 with fluorescent biosensor (FAM/BHQ1), cell-free; format: biochemical; settings: recombinant TDP1 1.5 nM, biosensor 50 nM, 26 °C
Procedure: The primary screening of the inhibitory activities against TDP1 was performed using an in vitro cell-free system involving the recombinant TDP1 and a fluorescent reporter probe as previously described.
The recombinant TDP1 was purified to homogeneity by chromatography on Ni-chelating resin and phosphocellulose P11 as previously described, using plasmid pET 16B-TDP1, kindly provided by Dr. K.W. Caldecott (University of Sussex, United Kingdom). The TDP1 activity measurements were carried out as described. Briefly, TDP1-biosensor with fluorofore (FAM) at the 5′-end and a fluorescence quencher (BHQ1) at the 3′-end at a final concentration of 50 nM were incubated in a 200 μL volume that contained TDP1 buffer (50 mM Tris-HCl pH 8.0, 50 mM NaCl, and 7 mM β-mercaptoethanol) supplemented with purified 1.5 nM TDP1 and various concentrations of inhibitor. Fluorescence measurements (Ex485/Em520 nm) were carried out during the linear phase of the reaction (from 0 to 8 min for TDP1) every 55 sec. The reactions were incubated at a constant temperature of 26 °C in a POLARstar OPTIMA fluorimeter (BMG LABTECH, GmbH). The influence of compounds was evaluated by comparing the fluorescence increase rate in the presence of compounds with that of DMSO control wells. The data were imported into the MARS Data Analysis 2.0 program (BMG LABTECH), and the IC50 values (the concentration of a compound required to reduce the enzyme activity by 50%) were calculated.

[3] = test system: T98G glioma cells; test: Cytotoxicity (MTT) alone and in combination with temozolomide; format: cell-based
Procedure: (§1) Since we used the T98G glioblastoma cell line for the first time for our experiments, we first attempted to perform the cytotoxicity study in a range of concentrations from 10 to 100 µM, as we did previously with the TDP1 inhibitory compounds when working with the other cell lines. However, the cytotoxicity at 50 and 100 µM of our compounds turned out to be rather high in the T98G cell line. We then measured the cytotoxicity of individual TDP1 inhibitors at 2.5, 5, 10, and 25 µM. The studied compounds were prepared as 50 mM stock solutions in DMSO and added to T98G glioma cells at 2.5 µM to 25 µM concentrations, either individually or in combination with 1000 or 2000 µM of TMZ. […] They were therefore discarded from the later cytotoxicity studies.
Individual TDP1 inhibitors were prepared as 50 mM stock solutions in DMSO and were added to the cells at 2.5, 5, 10, or 25 μM. Temozolomide was prepared as 200 mM stock solution in DMSO and was added at 1 mM or 2 mM concentrations, either alone or in combination with TDP1 inhibitors. T98G and SNB19 glioma cells were maintained in DMem/F12 medium supplemented with 10% foetal bovine serum, l-glutamine, and penicillin/streptomycin and were split at 10,000 cells/well into the 96-well plates for cytotoxicity experiments. The drugs or drug combinations were incubated with cells for 72 h, then the MTT reagent (3-(4,5-dimethylthiazol-2-yl)-2,5-diphenyltetrazolium bromide) was added for 4 h. The produced purple formazan dye reporting the activity of cellular oxireductases was dissolved overnight in 10% solution of acidified SDS and the absorbance was measured using a Tecan plate reader. Each concentration of individual substance or each drug combination was tested in triplicate. The data obtained were processed using MS Excel software and presented as histogram plots.

[4] = Solubility observations (stock solutions, solvents, cell growth medium); format: physicochemical; settings: light microscopy
Procedure: as §1

T1 sequence (Q9NUW8 whole entry): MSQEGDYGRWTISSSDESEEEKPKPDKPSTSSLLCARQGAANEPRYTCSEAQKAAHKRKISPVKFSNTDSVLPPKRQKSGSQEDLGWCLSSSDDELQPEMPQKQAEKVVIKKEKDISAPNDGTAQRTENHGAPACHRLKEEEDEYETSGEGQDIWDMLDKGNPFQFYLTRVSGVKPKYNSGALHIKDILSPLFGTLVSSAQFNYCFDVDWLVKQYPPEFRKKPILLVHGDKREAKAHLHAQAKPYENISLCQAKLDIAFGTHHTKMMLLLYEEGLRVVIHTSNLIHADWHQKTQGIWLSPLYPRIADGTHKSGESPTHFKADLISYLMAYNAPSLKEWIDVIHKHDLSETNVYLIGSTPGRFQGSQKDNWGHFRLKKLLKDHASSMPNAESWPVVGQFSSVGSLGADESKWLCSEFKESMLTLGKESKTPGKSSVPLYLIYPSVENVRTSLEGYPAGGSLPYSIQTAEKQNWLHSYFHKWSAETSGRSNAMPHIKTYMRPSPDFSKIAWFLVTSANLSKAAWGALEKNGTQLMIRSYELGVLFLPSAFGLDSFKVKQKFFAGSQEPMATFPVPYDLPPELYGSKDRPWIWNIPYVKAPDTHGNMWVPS

Row | Compound | IC50 [2] [µM] | other results
1 | CC(=O)C1=C(O)C=C2Oc3c(-c4csc(N/N=C/CC(C)CCC=C(C)C)n4)c(O)c(C)c(O)c3[C@@]2(C)C1=O (stereo partly shown) [A] |  | IC50 [1]: 0.0103 ± 0.0004 µM
2 | CC(C)=CCC/C(C)=C/COc1ccc2c(-c3ccc(F)cc3)cc(=O)oc2c1 [C] |  | IC50 [1]: 0.5 µM
3 | CC(C)c1ccc2c(c1)CC[C@H]1[C@](C)(CNC(=O)NC34CC5CC(CC(C5)C3)C4)CCC[C@]21C [Compound 1, N-abieta-8,11,13-trien-18-yl-N’-1-adamantylurea] | 0.19 ± 0.03 | 
4 | CC(C)c1ccc2c(c1)CC[C@H]1[C@](C)(CNC(=O)NC3C4CC5CC(C4)CC3C5)CCC[C@]21C (stereo partly shown) [Compound 2, N-abieta-8,11,13-trien-18-yl-N’-2-adamantylurea] | 0.8 ± 0.2 | sensitization of glioma T98G cells to TMZ ([3]; combination with TMZ): most effective; melting point: 150 °C
5 | CC(C)c1ccc2c(c1)CC[C@H]1[C@](C)(CNC(=S)NC34CC5CC(CC(C5)C3)C4)CCC[C@]21C [Compound 3, N-abieta-8,11,13-trien-18-yl-N’-1-adamantylthiourea] | 1.5 ± 0.5 | 
6 | CC(C)c1ccc2c(c1)CC[C@H]1[C@](C)(CNC(=S)NC3C4CC5CC(C4)CC3C5)CCC[C@]21C (stereo partly shown) [Compound 4, N-abieta-8,11,13-trien-18-yl-N’-2-adamantylthiourea] | 0.67 ± 0.19 | 
7 | CC(C)c1ccc2c(c1)CC[C@H]1[C@](C)(CNC(N)=O)CCC[C@]21C [Compound 5, N-abieta-8,11,13-trien-18-ylurea] | > 15 | IC50 (TDP1) [2]: no activity; also recorded: failed to inhibit TDP1
8 | CC(C)c1ccc2c(c1)CC[C@H]1[C@](C)(CNC(=O)C34CC5CC(CC(C5)C3)C4)CCC[C@]21C [Compound 6, N-abieta-8,11,13-trien-18-yladamantan-1-carboxamide] | 0.94 ± 0.18 | 
9 | CC(C)c1ccc2c(c1)CC[C@H]1[C@](C)(CNC(=O)C3C4CC5CC(C4)CC3C5)CCC[C@]21C (stereo partly shown) [Compound 7, N-abieta-8,11,13-trien-18-yladamantan-2-carboxamide] | 1.8 ± 0.4 | behaviour of stock solution dissolved in cell growth medium [4]: formed visible micelles
10 | CC(C)c1ccc2c(c1)CC[C@H]1[C@](C)(CNC(=S)C34CC5CC(CC(C5)C3)C4)CCC[C@]21C [Compound 8, N-abieta-8,11,13-trien-18-yladamantan-1-carbothioamide] | 2.3 ± 0.8 | behaviour of stock solution dissolved in cell growth medium [4]: formed visible micelles
11 | CC(C)c1ccc2c(c1)CC[C@H]1[C@](C)(NC(=O)NC34CC5CC(CC(C5)C3)C4)CCC[C@]21C [Compound 9, N-1-adamantyl-N’-[(1R,4aS,10aR)-7-isopropyl-1,4a-dimethyl-1,2,3,4,4a,9,10,10a-octahydrophenanthren-1-yl]urea] | 0.57 ± 0.16 | 
12 | CC(C)c1ccc2c(c1)CC[C@H]1[C@](C)(NC(=O)NC3C4CC5CC(C4)CC3C5)CCC[C@]21C (stereo partly drawn) [Compound 10, N-2-adamantyl-N’-[(1R,4aS,10aR)-7-isopropyl-1,4a-dimethyl-1,2,3,4,4a,9,10,10a-octahydrophenanthren-1-yl]urea] | 0.59 ± 0.15 | 
13 | CC(C)C1=CC2=CC[C@H]3[C@](C)(NC(=O)NC45CC6CC(CC(C6)C4)C5)CCC[C@]3(C)C2CC1 (stereo partly drawn) [Compound 11, N-1-adamantyl-N’-[(1R,4aR,10aR)-7-isopropyl-1,4a-dimethyl-1,2,3,4,4a,4b,5,6,10,10a-decahydrophenanthren-1-yl]urea] | 1.7 ± 0.6 | 
14 | CC(C)C1=CC2=CC[C@H]3[C@](C)(NC(=O)NC4C5CC6CC(C5)CC4C6)CCC[C@]3(C)C2CC1 (stereo partly drawn) [Compound 12, N-2-adamantyl-N’-[(1R,4aR,10aR)-7-isopropyl-1,4a-dimethyl-1,2,3,4,4a,4b,5,6,10,10a-decahydrophenanthren-1-yl]urea] | 1.4 ± 0.3 | 
15 | CC(C)CCCC(C)CCOC(=O)C12CC3CC(CC(C3)C1)C2 (stereo not shown) [E] |  | IC50 [1]: 0.92 µM
16 | Cn1nnc2c(C(N)=O)ncn2c1=O [TMZ, temozolomide] |  | cells surviving the treatment ([3]; TMZ alone 1000 µM, 72 h, MTT): ~ 95%; inhibition of cell viability ([3]; TMZ alone 2000 µM, 72 h, MTT): ~ 40%

Reference: PMC8147275, “Design, Synthesis, and Molecular Docking Study of New Tyrosyl-DNA Phosphodiesterase 1 (TDP1) Inhibitors Combining Resin Acids and Adamantane Moieties” (Pharmaceuticals, 2021)
